Assay results as given in the NIST ThermoML archive (doi:10.1016/j.tca.2017.12.024).
± gives the expanded uncertainty stated by the source.

Columns and labels:
[1] = Molar enthalpy of transition or fusion; details: Crystal; DSC
[2] = Crystal; DTA

Compound	Molar enthalpy of transition or fusion [1] [kcal/mol]	Normal melting temperature [2] [°C]
CCCCCCCCCCCCCCCC(=O)O [hexadecanoic acid]	12.6 ± 2.63	61.70 ± 3
CCCCCCCCCCCCCCCCCC(=O)O [octadecanoic acid]	14.3 ± 2.87	68.40 ± 3
CCCCCCCCCCCCCC(=O)O [tetradecanoic acid]	10.2 ± 2.01	54.70 ± 3
CCCCCCCCCCCC(=O)O [dodecanoic acid]	8.43 ± 1.67	43.60 ± 3
CCCCCCCCCC(=O)O [decanoic acid]	5.97 ± 1.2	32.00 ± 3
